In US11168089B2, “Fused pyrimidine derivatives as A2A / A2B inhibitors” (Incyte Corporation, priority 2018, dated 2021) one finds EC50 and Ki data, which are given here for 8 compounds.

Assay [1] has as its target human adenosine A2B receptor (Homo sapiens (Human), UniProt P29275). In words: Adenosine A2B Receptor Cyclic AMP GS Assay. It counts as cell-based. As to conditions: HEK-293 cells expressing human A2B receptor, agonist NECA 12 nM, cAMP accumulation; read-out: A2B_cAMP_EC50. On the procedure: Example B. Adenosine A2B Receptor Cyclic AMP GS Assay
Stably transfected HEK-293 cells expressing the human adenosine A2B receptor (Perkin Elmer) were maintained in MEM culture medium with 10% FBS and 100 μg/mL Geneticin (Life Technologies). 18 to 24 hours prior to assay, geneticin was removed from culture. The cisbio cAMP-GS Dynamic kit utilizing the FRET (Fluorescence Resonance Energy Transfer) technology was used to measure cAMP accumulation in the cells. Compounds of the present disclosure at an appropriate concentration were mixed with 10000 cells/well in white 96 well half area plates (Perkin Elmer) for 30 min at room temperature gently shaking. Agonist, NECA (R&D Technologies) at 12 nM was added to each well for 60 min at room temperature gently shaking. Detection reagents, d2-labeled cAMP (acceptor) and anti-cAMP cryptate (donor) were added to each well for 60 min at RT gently shaking. Plates were read on Pherastar (BMG Labtech), fluorescence ratio 665/620 was calculated and EC50 determination was performed by fitting the curve of percent of control versus the log of the compound concentration using GraphPad Prism.

In a further assay the target is Adenosine A2A receptor (Homo sapiens (Human), UniProt P29274). In words: A2A Tag-Lite HTRF assay. It counts as binding. As to conditions: Tag-Lite Adenosine A2A labeled cells, displacement of A2A Receptor Red antagonist fluorescent ligand 12.5 nM; read-out: A2A_Ki. The text has this:
Example C. A2A Tag-Lite® HTRF Assay
The final concentration of DMSO was 1%.

Chain of Adenosine A2A receptor (P29274 whole entry): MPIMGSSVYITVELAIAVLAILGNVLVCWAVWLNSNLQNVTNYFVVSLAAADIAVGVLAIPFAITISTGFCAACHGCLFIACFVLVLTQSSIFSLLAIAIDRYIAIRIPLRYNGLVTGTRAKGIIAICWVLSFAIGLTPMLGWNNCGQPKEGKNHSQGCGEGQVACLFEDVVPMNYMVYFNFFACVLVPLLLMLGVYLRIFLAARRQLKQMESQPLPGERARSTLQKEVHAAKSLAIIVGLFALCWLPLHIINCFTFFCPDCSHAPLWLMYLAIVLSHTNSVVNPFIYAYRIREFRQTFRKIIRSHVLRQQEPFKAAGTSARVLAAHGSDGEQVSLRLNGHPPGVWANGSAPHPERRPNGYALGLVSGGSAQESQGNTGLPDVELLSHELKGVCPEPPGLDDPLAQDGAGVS
Chain of human adenosine A2B receptor (P29275 whole entry): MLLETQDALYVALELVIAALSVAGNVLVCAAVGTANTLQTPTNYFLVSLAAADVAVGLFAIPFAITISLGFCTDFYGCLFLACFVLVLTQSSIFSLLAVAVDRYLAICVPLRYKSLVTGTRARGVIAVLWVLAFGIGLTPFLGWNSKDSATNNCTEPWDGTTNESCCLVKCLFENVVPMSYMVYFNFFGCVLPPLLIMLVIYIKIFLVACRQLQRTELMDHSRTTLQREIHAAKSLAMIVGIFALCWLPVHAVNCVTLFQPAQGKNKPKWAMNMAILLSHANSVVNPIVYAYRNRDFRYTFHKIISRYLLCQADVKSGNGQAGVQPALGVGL

Regarding `N#Cc1cccc(-c2cc3nc(Cc4c(F)cccc4CN4CC[C@H](C#N)C4)nn3c(N)n2)c1F` [Example 27, (S)-1-(2-((5-Amino-7-(3-cyano-2-fluorophenyl)-[1,2,4]triazolo[1,5-c]pyrimidin-2-yl)methyl)-3-fluorobenzyl)pyrrolidine-3-carbonitrile], the EC50 in assay [1] lay within 10 to 100 nM. In addition, the Ki on Adenosine A2A receptor was under 10 nM.
For `CN1CCC2(CN(Cc3cccc(F)c3Cc3nc4cc(-c5cccc(C#N)c5F)nc(N)n4n3)C2)C1=O` [Example 28, 3-(5-Amino-2-(2-fluoro-6-((6-methyl-5-oxo-2,6-diazaspiro[3.4]octan-2-yl)methyl)benzyl)-[1,2,4]triazolo[1,5-c]pyrimidin-7-yl)-2-fluorobenzonitrile], the EC50 in assay [1] is 10 to 100 nM. The Ki at Adenosine A2A receptor is under 10 nM.
For `CN1CCC(NCc2cccc(F)c2Cc2nc3cc(-c4cccc(C#N)c4F)nc(N)n3n2)C1=O` (stereo not shown) [Example 29, 3-(5-Amino-2-(2-fluoro-6-(((1-methyl-2-oxopyrrolidin-3-yl)amino)methyl)benzyl)-[1,2,4]triazolo[1,5-c]pyrimidin-7-yl)-2-fluorobenzonitrile], in assay [1], the EC50 is 10 to 100 nM. Further, the Ki at Adenosine A2A receptor is under 10 nM.
On to `CCN(Cc1cccc(F)c1Cc1nc2cc(-c3cccc(C#N)c3F)nc(N)n2n1)C1CCN(CC(=O)O)C1=O` (stereo not shown) [Example 30, 2-(3-((2-((5-Amino-7-(3-cyano-2-fluorophenyl)-[1,2,4]triazolo[1,5-c]pyrimidin-2-yl)methyl)-3-fluorobenzyl)(ethyl)amino)-2-oxopyrrolidin-1-yl)acetic acid], for which the EC50 in assay [1] is under 10 nM. In addition, the Ki on Adenosine A2A receptor was under 10 nM.
Turning to `CCN(Cc1cccc(F)c1Cc1nc2cc(-c3cccc(C#N)c3F)nc(N)n2n1)C1CCN(C)C1=O` (stereo not shown) [Example 31, 3-(5-Amino-2-(2-((ethyl(1-methyl-2-oxopyrrolidin-3-yl)amino)methyl)-6-fluorobenzyl)-[1,2,4]triazolo[1,5-c]pyrimidin-7-yl)-2-fluorobenzonitrile], the EC50 in assay [1] was under 10 nM. In addition, the Ki on Adenosine A2A receptor is under 10 nM.
In the case of `CCN(Cc1cccc(F)c1Cc1nc2cc(-c3cccc(C#N)c3F)nc(N)n2n1)[C@@H]1CCNC1=O` [Example 32, (R)-3-(5-Amino-2-(2-((ethyl(2-oxopyrrolidin-3-yl)amino)methyl)-6-fluorobenzyl)-[1,2,4]triazolo[1,5-c]pyrimidin-7-yl)-2-fluorobenzonitrile], the EC50 in assay [1] was 10 to 100 nM. The Ki on Adenosine A2A receptor is under 10 nM.
As to `N#Cc1cccc(-c2cc3nc(NCc4cccc(-c5cnn(C6CCNCC6)c5)n4)nn3c(N)n2)c1F` [Example 33, 3-(5-Amino-2-(((6-(1-(piperidin-4-yl)-1H-pyrazol-4-yl)pyridin-2-yl)methyl)amino)-[1,2,4]triazolo[1,5-c]pyrimidin-7-yl)-2-fluorobenzonitrile], in assay [1], the EC50 was under 10 nM. Also, the Ki at Adenosine A2A receptor is under 10 nM.
Take `N#Cc1cccc(-c2cc3nc(NCc4cccc(-c5cnn(CCN6CCOCC6)c5)n4)nn3c(N)n2)c1F` [Example 34, 3-(5-Amino-2-(((6-(1-(2-morpholinoethyl)-1H-pyrazol-4-yl)pyridin-2-yl)methyl)amino)-[1,2,4]triazolo[1,5-c]pyrimidin-7-yl)-2-fluorobenzonitrile]: the EC50 in assay [1] lay within 10 to 100 nM. On Adenosine A2A receptor, the Ki was under 10 nM.
